Assay results taken from PMC9490041, “Determinants of affinity, specificity, and phase separation in a supramodule from Post-synaptic density protein 95” (iScience, 2022).
Where two headings read alike, the source gives them in different places. Ends that are not written are not given here.

Key:
Assay in all cases: FP displacement (competition) of FITC-15 AA CRIPT by library peptide, IC50 and Ki
PSG G335A (PSD-95) = settings: for IC50: read-out: IC50 (µM), PSG G335A; for Ki: read-out: Ki (µM), PSG G335A
PDZ3 (PSD-95) = PDZ3 (PSD-95) (Homo sapiens, UniProt P78352)
Chain of PDZ3 (PSD-95) (P78352 313-393 limits assumed): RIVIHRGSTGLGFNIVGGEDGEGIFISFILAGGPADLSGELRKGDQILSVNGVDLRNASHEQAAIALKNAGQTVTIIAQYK

PSG G322A G335A (PSD-95) = settings: for IC50: read-out: IC50 (µM), PSG G322A G335A; for Ki: read-out: Ki (µM), PSG G322A G335A
PSG (PSD-95) = settings: for IC50: read-out: IC50 (µM), PSG
PSG G322A (PSD-95) = settings: for IC50: read-out: IC50 (µM), PSG G322A; for Ki: read-out: Ki (µM), PSG G322A
[1] = FP displacement of FITC-15 AA CRIPT probe by acetylated PSD library peptide
[2] = Ki (µM), PDZ3, FP displacement of FITC-15 AA CRIPT probe by acetylated PSD library peptide
[3] = Ki, FP displacement of 5 nM FITC-15 AA CRIPT by non-labeled acetylated peptide, room temperature, Ki from IC50, technical triplicates, PDZ3
[4] = FP displacement of FITC-15 AA CRIPT probe by acetylated PSD library peptide (P-13 to P0 plus extra N-terminal Y)
[5] = FP displacement of 5 nM FITC-15 AA CRIPT by non-labeled acetylated peptide, room temperature, Ki from IC50, technical triplicates, PSG
[6] = read-out: Ki (µM), PSG, FP displacement of FITC-15 AA CRIPT probe by acetylated PSD library peptide
[7] = FP displacement of FITC-15 AA CRIPT probe by PSD library peptide, protein PSG G335A
[8] = Ki (µM), PDZ3, FP displacement of FITC-15 AA CRIPT probe by PSD library peptide, protein PDZ3
[9] = FP displacement of FITC-15 AA CRIPT probe by PSD library peptide, protein PSG G322A G335A
[10] = FP displacement of FITC-15 AA CRIPT probe by PSD library peptide, protein PSG (wild type)
[11] = read-out: Ki (µM), PSG, FP displacement of FITC-15 AA CRIPT probe by PSD library peptide, protein PSG (wild type)
[12] = FP displacement of FITC-15 AA CRIPT probe by PSD library peptide, protein PSG G322A

| IC50 (PSG G335A (PSD-95); [1]) [µM] | Ki (PSG G335A (PSD-95); [1]) [µM] | IC50 (PSG G322A G335A (PSD-95); [4]) [µM] | Ki (PSG G322A G335A (PSD-95); [1]) [µM] | IC50 (PSG (PSD-95); [1]) [µM] | Ki (PSG (PSD-95); [6]) [µM] | IC50 (PSG G322A (PSD-95); [1]) [µM] | Ki (PSG G322A (PSD-95); [1]) [µM] | IC50 (PSG G335A (PSD-95); [7]) [µM] | Ki (PSG G335A (PSD-95); [7]) [µM] | IC50 (PSG G322A G335A (PSD-95); [9]) [µM] | Ki (PSG G322A G335A (PSD-95); [9]) [µM] | IC50 (PSG (PSD-95); [10]) [µM] | Ki (PSG (PSD-95); [11]) [µM] | IC50 (PSG G322A (PSD-95); [12]) [µM] | Ki (PSG G322A (PSD-95); [12]) [µM] | Compound | also measured |
| --- | --- | --- | --- | --- | --- | --- | --- | --- | --- | --- | --- | --- | --- | --- | --- | --- | --- |
| 33 | 12 | 21 | 7 | 110 | 46 | 27 | 12 | – | – | – | – | – | – | – | – | CC[C@H](C)[C@H](NC(=O)[C@H](CO)NC(=O)[C@H](CCC(N)=O)NC(=O)[C@H](CCCNC(=N)N)NC(=O)[C@H](CCCCN)NC(=O)[C@H](CO)NC(=O)[C@H](CC(=O)O)NC(=O)[C@@H]1CCCN1C(=O)[C@H](Cc1ccc(O)cc1)NC(C)=O)C(=O)N[C@@H](CC(C)C)C(=O)N[C@@H](Cc1ccccc1)C(=O)N[C@@H](CO)C(=O)N[C@H](C(=O)N[C@@H](CCC(=O)O)C(=O)N[C@H](C(=O)O)C(C)C)[C@@H](C)O [BCR] | Ki (PDZ3 (PSD-95); [2]): 42 µM; Ki (PDZ3 (PSD-95); [3]): < 75 µM; Ki (PSG (PSD-95); [5]): < 75 µM |
| – | – | – | – | – | – | – | – | 90 | 32 | 82 | 28 | 200 | 105 | 99 | 43 | CC(=O)N[C@@H](Cc1ccc(O)cc1)C(=O)N[C@@H](CCC(=O)O)C(=O)N[C@@H](CCC(=O)O)C(=O)N[C@@H](CCC(=O)O)C(=O)N[C@@H](CC(C)C)C(=O)N[C@@H](CCC(N)=O)C(=O)N[C@@H](CC(=O)O)C(=O)N[C@@H](CO)C(=O)N[C@@H](CCCNC(=N)N)C(=O)N[C@H](C(=O)N[C@@H](Cc1ccc(O)cc1)C(=O)N[C@H](C(=O)N[C@@H](CO)C(=O)N[C@@H](CO)C(=O)N[C@@H](CC(C)C)C(=O)O)C(C)C)C(C)C [CAC1C] | Ki (PDZ3 (PSD-95); [8]): 449 µM |
| 28 | 10 | – | – | 116 | 49 | 15 | 6 | – | – | – | – | – | – | – | – | CC(=O)N[C@@H](Cc1ccc(O)cc1)C(=O)N[C@@H](C)C(=O)N[C@@H](CO)C(=O)N[C@@H](CC(N)=O)C(=O)N[C@H](C(=O)N[C@@H](CC(N)=O)C(=O)N[C@H](C(=O)N[C@@H](CC(C)C)C(=O)N[C@@H](CC(N)=O)C(=O)N[C@@H](CCCNC(=N)N)C(=O)N[C@@H](CCCCN)C(=O)N[C@H](C(=O)N[C@H](C(=O)N1CCC[C@H]1C(=O)N[C@H](C(=O)O)C(C)C)[C@@H](C)O)[C@@H](C)O)[C@@H](C)O)[C@@H](C)O [CCG8] | IC50 (PDZ3 (PSD-95)): 19 µM; Ki (PDZ3 (PSD-95); [3]): < 75 µM; Ki (PSG (PSD-95); [5]): < 75 µM |
| 1600 | 569 | 1630 | 564 | 1160 | 493 | 1450 | 629 | – | – | – | – | – | – | – | – | CC[C@H](C)[C@H](NC(=O)[C@@H](NC(=O)[C@H](CCCCN)NC(=O)[C@H](CCCCN)NC(=O)CNC(=O)[C@H](CC(C)C)NC(=O)[C@H](CCCCN)NC(=O)[C@H](C)NC(=O)[C@H](CCSC)NC(=O)[C@H](CCCNC(=N)N)NC(=O)[C@H](CCSC)NC(=O)[C@H](CCCNC(=N)N)NC(=O)[C@H](CC(C)C)NC(=O)[C@H](C)NC(=O)[C@H](Cc1ccc(O)cc1)NC(C)=O)C(C)C)C(=O)O [PALMD] | – |
| – | – | – | – | – | – | – | – | 329 | 117 | 147 | 51 | 631 | 269 | 156 | 68 | CC(=O)N[C@@H](Cc1ccc(O)cc1)C(=O)N[C@@H](CCCNC(=N)N)C(=O)N[C@@H](CCC(N)=O)C(=O)N1CCC[C@H]1C(=O)N[C@@H](CC(C)C)C(=O)N1CCC[C@H]1C(=O)N[C@@H](CC(=O)O)C(=O)N[C@@H](CO)C(=O)N[C@@H](CC(N)=O)C(=O)N1CCC[C@H]1C(=O)N[C@@H](CCC(=O)O)C(=O)N[C@@H](CCC(=O)O)C(=O)N[C@@H](CO)C(=O)N[C@@H](CO)C(=O)N[C@H](C(=O)O)C(C)C [SEM4C] | – |
| – | – | – | – | – | – | – | – | 980 | 349 | 1680 | 580 | 1120 | 475 | 695 | 301 | CC(=O)N[C@@H](Cc1ccc(O)cc1)C(=O)N1CCC[C@H]1C(=O)N[C@@H](CCC(N)=O)C(=O)N[C@@H](Cc1c[nH]cn1)C(=O)N[C@@H](CC(C)C)C(=O)N[C@@H](CCCNC(=N)N)C(=O)N[C@H](C(=O)N[C@@H](C)C(=O)N[C@@H](CO)C(=O)N[C@@H](CCCCN)C(=O)N[C@@H](CC(N)=O)C(=O)N[C@@H](CCC(=O)O)C(=O)N[C@H](C(=O)N[C@H](C(=O)N[C@H](C(=O)O)C(C)C)[C@@H](C)O)C(C)C)[C@@H](C)O [SHSA7] | – |
| – | – | – | – | – | – | – | – | 603 | 215 | 435 | 151 | 1450 | 765 | 792 | 343 | CC(=O)N[C@@H](Cc1ccc(O)cc1)C(=O)N[C@@H](CO)C(=O)N[C@@H](CO)C(=O)N[C@H](C(=O)N[C@@H](CO)C(=O)N1CCC[C@H]1C(=O)N[C@@H](CCC(N)=O)C(=O)N[C@@H](CO)C(=O)N[C@H](C(=O)N[C@@H](CC(=O)O)C(=O)N[C@@H](CCCCN)C(=O)N[C@@H](CO)C(=O)N[C@@H](CO)C(=O)N[C@H](C(=O)N[C@H](C(=O)O)C(C)C)[C@@H](C)O)[C@@H](C)O)[C@@H](C)O [SRGP2] | – |
| – | – | – | – | – | – | – | – | 729 | 260 | 219 | 76 | 2070 | 884 | 489 | 212 | CC(=O)N[C@@H](Cc1ccc(O)cc1)C(=O)N[C@@H](CC(C)C)C(=O)N[C@@H](C)C(=O)N[C@@H](CC(=O)O)C(=O)N[C@@H](CCC(=O)O)C(=O)N[C@H](C(=O)N[C@@H](CO)C(=O)N[C@@H](C)C(=O)N[C@@H](CO)C(=O)N[C@@H](CC(C)C)C(=O)N[C@@H](C)C(=O)N[C@@H](CCCCN)C(=O)N[C@@H](CCC(N)=O)C(=O)NCC(=O)N[C@@H](CC(C)C)C(=O)O)C(C)C [TAU] | – |
| 120 | 43 | 73 | – | 75 | 31 | 86 | 37 | – | – | – | – | – | – | – | – | CC[C@H](C)[C@H](NC(=O)[C@H](CCC(=O)O)NC(=O)[C@H](CCC(=O)O)NC(=O)[C@@H](NC(=O)[C@@H](NC(=O)[C@H](CO)NC(=O)[C@H](CCC(=O)O)NC(=O)[C@H](Cc1ccc(O)cc1)NC(C)=O)[C@@H](C)O)[C@@H](C)O)C(=O)N[C@@H](CCC(=O)O)C(=O)N[C@@H](CC(C)C)C(=O)N[C@@H](CCC(=O)O)C(=O)N[C@@H](CC(=O)O)C(=O)N[C@H](C(=O)N[C@@H](CCC(=O)O)C(=O)N[C@@H](CS)C(=O)O)C(C)C [VSTM5] | Ki (PSG (PSD-95); [5]): < 75 µM |
| – | – | – | – | – | – | – | – | – | – | – | – | – | – | – | – | Ac-YDSIEIYIPEAQTRL [DLGP2] | IC50 (PDZ3 (PSD-95)): 396 µM; Ki (PDZ3 (PSD-95); [8]): 165 µM |
| 764 | 272 | 536 | 185 | 1740 | 743 | 503 | 218 | – | – | – | – | – | – | – | – | Ac-YLTGAPLATSDETSI [SEM4F] | – |
| 1430 | 510 | 997 | 345 | 1590 | 679 | 1550 | 671 | – | – | – | – | – | – | – | – | Ac-YPPSSPTLSVSSTSL [KLH17] | – |
| – | – | 1320 | 457 | 2160 | 923 | 834 | 362 | – | – | – | – | – | – | – | – | Ac-YQARRGKKKSGSLVL [RHOA] | Ki (PDZ3 (PSD-95); [2]): 548 µM |
